26 molecules from US9199946B2, “Pyrimidinone carboxamide inhibitors of endothelial lipase” (BRISTOL-MYERS SQUIBB COMPANY, priority 2012, dated 2015) can be followed below.

The pIC50 is the negative decadic logarithm of the IC50, by convention in mol/L.

This assay addresses T1, Endothelial lipase (EL) (Homo sapiens, UniProt Q9Y5X9).
T1 construct: HT-1080 cells, which were transformed by RAGE technology (Athersys) to overexpress endogenous EL; endogenous in cells; conditioned medium used as the enzyme source
T1 sequence (Q9Y5X9 21-500): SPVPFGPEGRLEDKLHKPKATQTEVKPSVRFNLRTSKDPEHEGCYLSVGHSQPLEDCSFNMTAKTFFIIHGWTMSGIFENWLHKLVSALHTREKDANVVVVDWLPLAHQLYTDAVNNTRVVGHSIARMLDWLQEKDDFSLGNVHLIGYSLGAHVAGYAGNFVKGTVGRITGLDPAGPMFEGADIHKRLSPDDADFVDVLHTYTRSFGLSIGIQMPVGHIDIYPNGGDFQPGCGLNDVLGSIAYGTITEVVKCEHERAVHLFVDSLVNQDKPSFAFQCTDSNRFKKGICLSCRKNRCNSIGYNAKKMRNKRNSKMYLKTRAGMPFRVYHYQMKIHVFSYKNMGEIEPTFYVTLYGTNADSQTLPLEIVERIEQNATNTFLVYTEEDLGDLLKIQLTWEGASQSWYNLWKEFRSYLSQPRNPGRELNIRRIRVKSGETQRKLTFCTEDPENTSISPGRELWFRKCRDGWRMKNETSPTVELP
Kind of assay: Endothelial lipase (EL) enzymatic assay with fluorescent substrate A10070 in DMPG vesicles. It counts as biochemical. In short, it runs like this: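 The enzyme source was conditioned medium from HT-1080 cells engineered to overexpress endogenous EL. It was preincubated with compound for 20 min at 37 °C in 50 mM HEPES pH 8.0, 50 mM NaCl, 1 mM CaCl2. Reactions started with DMPG vesicles carrying FRET substrate A10070 (mole fraction 0.05). The rate was taken from the linear slope of fluorescence (ex 488/em 530 nm) over 10 min.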

Setting [1] is: range observed in the EL assay, read-out: EL IC50 values.
The mark [2] stands for this setting: conditioned media from HT-1080 cells overexpressing endogenous EL, 20 min preincubation at 37° C., read-out: EL IC50.

pIC50: −log10 of the molar value. Like-named read-outs stand apart in the source and are kept apart here.

For the molecule `Nc1c(C(=O)N[C@@H]2CC[C@@H](C(=O)Nc3cnn(Cc4ccccc4)c3)C2)[nH]c(=O)[nH]c1=O` [Example 149, 5-amino-N-((1R,3R)-3-(1-benzyl-1H-pyrazol-4-ylcarbamoyl)cyclopentyl)-2,6-dioxo-1,2,3,6-tetrahydropyrimidine-4-carboxamide], the pIC50 under setting [1] was no less than 5.00.
On the same count and under the same terms, in the case of `Nc1c(C(=O)N[C@H]2C[C@@H](c3ccccc3)c3ccccc32)[nH]c(=O)[nH]c1=O` (racemic) [Example 18, 5-amino-2,6-dioxo-N-(cis-3-phenyl-2,3-dihydro-1H-inden-1-yl)-1,2,3,6-tetrahydropyrimidine-4-carboxamide] it was no less than 5.00; in that of `Nc1c(C(=O)N[C@@H]2CCCc3cc(Oc4ccccc4)ccc32)[nH]c(=O)[nH]c1=O` [Example 85, (R)-5-amino-2,6-dioxo-N-(6-phenoxy-1,2,3,4-tetrahydronaphthalen-1-yl)-1,2,3,6-tetrahydropyrimidine-4-carboxamide], no less than 5.00; in that of `C[C@H](Nc1c(C(=O)N[C@H]2CC[C@@H](c3ccccc3)CC2)[nH]c(=O)[nH]c1=O)C1CCCCC1` [Example 232, 5-((S)-1-cyclohexylethylamino)-2,6-dioxo-N-(cis-phenylcyclohexyl)-1,2,3,6-tetrahydropyrimidine-4-carboxamide], no less than 5.00.
Same read-out and setting: the result for `Nc1c(C(=O)N[C@@H]2CC[C@@H](c3ccc(Cl)c(Cl)c3)C2)[nH]c(=O)[nH]c1=O` [Example 68, 5-amino-N-((1R,3R)-3-(3,4-dichlorophenyl)cyclopentyl)-2,6-dioxo-1,2,3,6-tetrahydropyrimidine-4-carboxamide] reads no less than 5.00; that for `Cn1nc(C(F)(F)F)cc1-c1ccc([C@H]2CC[C@@H](NC(=O)c3[nH]c(=O)[nH]c(=O)c3N)C2)cc1` [Example 173, 5-amino-N-((1R,3S)-3-(4-(1-methyl-3-(trifluoromethyl)-1H-pyrazol-5-yl)phenyl)cyclopentyl)-2,6-dioxo-1,2,3,6-tetrahydropyrimidine-4-carboxamide], no less than 5.00.
In the case of `Nc1c(C(=O)N[C@H]2CC[C@@H](c3ccc(-c4cccc(CO)c4)cc3)C2)[nH]c(=O)[nH]c1=O` [Example 178, 5-amino-N-((1S,3R)-3-(3′-(hydroxymethyl)biphenyl-4-yl)cyclopentyl)-2,6-dioxo-1,2,3,6-tetrahydropyrimidine-4-carboxamide], the pIC50 under setting [1] was no less than 5.00.
On the same count and under the same terms, in the case of `Nc1c(C(=O)N[C@@H]2CC[C@@H](C(=O)NCc3nc4ccccc4s3)C2)[nH]c(=O)[nH]c1=O` [Example 148, 5-amino-N-((1R,3R)-3-(benzo[d]thiazol-2-ylmethylcarbamoyl)cyclopentyl)-2,6-dioxo-1,2,3,6-tetrahydropyrimidine-4-carboxamide] it was no less than 5.00; in that of `O=C(N[C@H]1CC[C@@H](C(=O)N[C@@H]2CCCc3c(OCc4ccccc4)cccc32)C1)c1[nH]c(=O)[nH]c(=O)c1O` [Example 263, N-((1S,3R)-3-((R)-5-(benzyloxy)-1,2,3,4-tetrahydronaphthalen-1-ylcarbamoyl)cyclopentyl)-5-hydroxy-2,6-dioxo-1,2,3,6-tetrahydropyrimidine-4-carboxamide], no less than 5.00.
For `Nc1c(C(=O)NC2CCN(c3ncnc4[nH]ncc34)C2)[nH]c(=O)[nH]c1=O` (stereo not shown) [Example 189, N-(1-(1H-pyrazolo[3,4-d]pyrimidin-4-yl)pyrrolidin-3-yl)-5-amino-2,6-dioxo-1,2,3,6-tetrahydropyrimidine-4-carboxamide], the pIC50 was 6.19 under setting [2] and no less than 5.00 under setting [1].
`Nc1c(C(=O)NC2CCC(c3cnn(Cc4ccccc4)c3)C2)[nH]c(=O)[nH]c1=O` (single isomer, unassigned) [Example 131, 5-amino-N-(3-(1-benzyl-1H-pyrazol-4-yl)cyclopentyl)-2,6-dioxo-1,2,3,6-tetrahydropyrimidine-4-carboxamide]: under setting [1], the pIC50 was no less than 5.00.
Same read-out and setting: in the case of `COC(=O)[C@@H]1C[C@@H](NC(=O)c2[nH]c(=O)[nH]c(=O)c2N)c2ccccc2[C@H]1c1ccccc1` [Example 23, (1R,2R,4R)-methyl 4-(5-amino-2,6-dioxo-1,2,3,6-tetrahydropyrimidine-4-carboxamido)-1-phenyl-1,2,3,4-tetrahydronaphthalene-2-carboxylate] it was no less than 5.00; in that of `Nc1c(C(=O)N[C@@H]2CCCc3c(OCc4ccccc4F)cccc32)[nH]c(=O)[nH]c1=O` [Example 96, (R)-5-amino-N-(5-(2-fluorobenzyloxy)-1,2,3,4-tetrahydronaphthalen-1-yl)-2,6-dioxo-1,2,3,6-tetrahydropyrimidine-4-carboxamide], no less than 5.00.
On to `O=C(N[C@H]1CC[C@@H](c2ccccc2)CC1)c1[nH]c(=O)[nH]c(=O)c1NCc1ccc(F)cc1` [Example 205, 5-(4-Fluorobenzylamino)-2,6-dioxo-N-(cis-4-phenylcyclohexyl)-1,2,3,6-tetrahydropyrimidine-4-carboxamide], for which, under setting [1], the pIC50 was no less than 5.00.
Same read-out and setting: the result for `Nc1c(C(=O)N[C@H]2CC[C@H](c3ccccc3)c3ccccc32)[nH]c(=O)[nH]c1=O` [Example 71, 5-amino-2,6-dioxo-N-((1S,4R)-4-phenyl-1,2,3,4-tetrahydronaphthalen-1-yl)-1,2,3,6-tetrahydropyrimidine-4-carboxamide] reads no less than 5.00.
With `O=C(N[C@H]1CC[C@@H](c2ccccc2)CC1)c1[nH]c(=O)[nH]c(=O)c1NCCCn1ccnc1` [Example 216, 5-(3-(1H-imidazol-1-yl)propylamino)-2,6-dioxo-N-(cis-4-phenylcyclohexyl)-1,2,3,6-tetrahydropyrimidine-4-carboxamide], the pIC50 reads like this: under setting [2], 5.46; under setting [1], no less than 5.00.
Consider `Nc1c(C(=O)NC2CCC(c3cccc(OCc4ccccc4)c3)C2)[nH]c(=O)[nH]c1=O` (stereo not shown) [Example 104, 5-amino-N-(3-(3-(benzyloxy)phenyl)cyclopentyl)-2,6-dioxo-1,2,3,6-tetrahydropyrimidine-4-carboxamide], for which the pIC50 under setting [1] is no less than 5.00.
For `Nc1c(C(=O)N[C@@H]2CCCc3c(Oc4ccccc4)cccc32)[nH]c(=O)[nH]c1=O` [Example 84, (R)-5-amino-2,6-dioxo-N-(5-phenoxy-1,2,3,4-tetrahydronaphthalen-1-yl)-1,2,3,6-tetrahydropyrimidine-4-carboxamide], the pIC50 under setting [1] is no less than 5.00.
In the case of `Nc1c(C(=O)N[C@@H]2CCCc3ccc(C(F)(F)F)cc32)[nH]c(=O)[nH]c1=O` [Example 53, (R)-5-amino-2,6-dioxo-N-(7-(trifluoromethyl)-1,2,3,4-tetrahydronaphthalen-1-yl)-1,2,3,6-tetrahydropyrimidine-4-carboxamide], the pIC50 was 7.74 under setting [2] and no less than 5.00 under setting [1].
On the same counts, the results for `CCOC(=O)N1CCC(NC(=O)c2[nH]c(=O)[nH]c(=O)c2N)c2ccccc21` (racemic) [Example 25, ethyl 4-(5-amino-2,6-dioxo-1,2,3,6-tetrahydropyrimidine-4-carboxamido)-3,4-dihydroqiiinoline-1(2H)-carboxylate] are 5.98 and no less than 5.00.
As to `Nc1c(C(=O)N[C@H]2CCCc3c(OCc4ccccc4)cccc32)[nH]c(=O)[nH]c1=O` [Example 92, (S)-5-amino-N-(5-(benzyloxy)-1,2,3,4-tetrahydronaphthalen-1-yl)-2,6-dioxo-1,2,3,6-tetrahydropyrimidine-4-carboxamide], the pIC50 under setting [1] is no less than 5.00.
As for `Nc1c(C(=O)N[C@H]2CC[C@@H](NC(=O)OCc3ccccc3)CC2)[nH]c(=O)[nH]c1=O` [Example 119, benzyl cis-4-(5-amino-2,6-dioxo-1,2,3,6-tetrahydropyrimidine-4-carboxamido)cyclohexylcarbamate], under setting [1], the pIC50 was no less than 5.00.
Regarding `COc1cccc2c1CCCC2NC(=O)c1[nH]c(=O)[nH]c(=O)c1N` (single isomer, unassigned; enantiomer a) [Example 198, 5-amino-N-(5-methoxy-1,2,3,4-tetrahydronaphthalen-1-yl)-2,6-dioxo 1,2,3,6-tetrahydropyrimidine-4-carboxamide (Enantiomer A)], the pIC50 under setting [1] was no less than 5.00.
For `Nc1c(C(=O)N[C@H]2CC[C@@H](NC(=O)c3nc4ccccc4s3)CC2)[nH]c(=O)[nH]c1=O` [Example 117, N-(cis-4-(5-amino-2,6-dioxo-1,2,3,6-tetrahydropyrimidine-4-carboxamido)cyclohexyl)benzo[d] thiazole-2-carboxamide], the negative logarithm of the IC50 (pIC50) is 5.92 under setting [2] and no less than 5.00 under setting [1].
For `Nc1c(C(=O)NC2CCCc3cc(OCC(F)(F)F)ccc32)[nH]c(=O)[nH]c1=O` (stereo not shown) [Example 22, 5-amino-2,6-dioxo-N-(6-(2,2,2-trifluoroethoxy)-1,2,3,4-tetrahydronaphthalen-1-yl)-1,2,3,6-tetrahydropyrimidine-4-carboxamide], the pIC50 under setting [1] was no less than 5.00.
The same measure, in the same setting: in the case of `Nc1c(C(=O)N[C@@H]2CCCc3c(OCC(F)(F)F)cccc32)[nH]c(=O)[nH]c1=O` [Example 36, (R)-5-amino-2,6-dioxo-N-(5-(2,2,2-trifluoroethoxy)-1,2,3,4-tetrahydronaphthalen-1-yl)-1,2,3,6-tetrahydropyrimidine-4-carboxamide] it was no less than 5.00.
